# What was measured:
# [1] = system: PDE8; test: PDE8 enzymatic assay equivalent to that described for PDE7; format: biochemical
# Source text: 2) Measurement of the Inhibitory Activity of the Compounds in Accordance with the Invention with Regard to PDE8
# [2] = system: Male C57B6 mice; test: Murine model of myocardial infarction resulting from an ischemia-reperfusion episode; format: in vivo; details: 3 mg/kg intravenously 5 minutes before reperfusion; 45 min coronary occlusion, 24 hours of reperfusion; compared with the vehicle
# Method: 3) Evaluation of the Compounds in Accordance with the Invention in a Murine Model of Myocardial Infarction Resulting from an Ischemia-Reperfusion Episode
# Male C57B6 mice (23-26 g) are anaesthetized (ketamine 1 g/kg+xylazine 0.02 g/kg, IP) and placed under respiratory assistance before being subjected to a thoracotomy targeted at exposing the heart. Cardiac ischemia is then induced by the transient ligation of the left coronary artery. After 45 minutes of coronary occlusion, the ligature is removed in order to make possible reperfusion of the region rendered ischemic. After closing the thorax and restoring the pleural cavity, the animals are placed in a revival cage.
# Test compounds Nos 11, 56, 233 and 309 are administered 5 minutes before reperfusion intravenously at a dose of 3 mg/kg and compared with the vehicle (7.5% Cremophor RH40+22.5% glycofurol in a physiological serum solution).
# After 24 hours of cardiac reperfusion, the animals are again anaesthetized (ketamine 1 g/kg+xylazine 0.02 g/kg, IP) before intravenously receiving sodium nitroprusside (1 mg/ml at 1 ml/min for 4 minutes) in order to dilate the coronary vasculature. The left coronary artery is religatured and a solution of Evans blue (3%, 200 to 300 μl) is injected by carotid retroperfusion in order to determine the region at ventricular risk. The heart is then removed and immersed in a saturated KCl solution in order to stop it in diastole. Transverse sections of 1 mm are produced, incubated in triphenyltetrazolium chloride (1% in PBS) at 37° C. for 2 minutes and then placed in formaldehyde (4%) overnight. The tetrazolium salt makes it possible to visualize the viable region within the region at risk. The surface area of the infarction with respect to the region at risk is determined by image analysis.
IC50 [1],SMILES,"reduction of the size of the infarction, expressed with respect to the region at risk [2]"
140 nM,"COc1ccc(Cn2c(=O)c3cc(OC(CF)CF)ccc3n(C3CCN(C=O)CC3)c2=O)cc1OC [No. 11, 4-[3-(3,4-dimethoxybenzyl)-6-[2-fluoro-1-(fluoromethyl)ethoxy]-2,4-dioxo-3,4-dihydroquinazolin-1(2H)-yl]piperidine-1-carbaldehyde]",43%
–,"COc1cc(Cn2c(=O)c3cc(OC(CF)CF)ccc3n(C3CCN(C=O)CC3)c2=O)ccc1OC1CCCC1 [No. 56, 4-{3-[4-(cyclopentyloxy)-3-methoxybenzyl]-6-[2-fluoro-1-(fluoromethyl)ethoxy]-2,4-dioxo-3,4-dihydroquinazolin-1(2H)-yl}piperidine-1-carbaldehyde]",33%
–,"COc1ccc(Cn2c(=O)c3cc(OC(CF)CF)c(F)cc3n(C3CCN(C=O)CC3)c2=O)cc1OC [No. 233, 4-[3-(3,4-dimethoxybenzyl)-7-fluoro-6-[2-fluoro-1-(fluoromethyl)ethoxy]-2,4-dioxo-3,4-dihydroquinazolin-1(2H)-yl]piperidine-1-carbaldehyde]",40%
15 nM,"N#Cc1cc(Cn2c(=O)c3cc(OC(CF)CF)ccc3n(C3CCN(C=O)CC3)c2=O)ccc1-c1ccccc1 [No. 294, 4-({6-[2-fluoro-1-(fluoromethyl)ethoxy]-1-(1-formylpiperidin-4-yl)-2,4-dioxo-1,4-dihydroquinazolin-3(2H)-yl}methyl)biphenyl-2-carbonitrile]",–
–,"COc1cc(Cn2c(=O)c3cc(OC(CF)CF)c(F)cc3n(C3CCN(C=O)CC3)c2=O)ccc1OCC1CC1 [No. 309, 4-{3-[4-(cyclopropylmethoxy)-3-methoxybenzyl]-7-fluoro-6-[2-fluoro-1-(fluoromethyl)ethoxy]-2,4-dioxo-3,4-dihydroquinazolin-1(2H)-yl}piperidine-1-carbaldehyde]",32%
